# ChEMBL document CHEMBL1122324, “New antihypertensive cannabinoids” (1983)
# Assays:
# Details in all cases: route oral
# Rattus norvegicus [1] = test: percentage decrease in heart rate after 4 hr at a dose of 100 mg/kg administered perorally in rats; type: functional
# Rattus norvegicus [2] = test: Percentage decrease in systolic blood pressure after 4 hr at 100 mg/kg administered perorally in rats; type: functional, Artery
# Rattus norvegicus [3] = test: percentage decrease in heart rate after 24 hr at a dose of 30 mg/kg administered perorally in rats.; type: functional
# Rattus norvegicus [4] = test: percentage decrease in heart rate after 4 hr at a dose of 10 mg/kg administered perorally in rats.; type: functional
# Rattus norvegicus [5] = test: percentage decrease in heart rate after 4 hr at a dose of 30 mg/kg administered perorally in rats.; type: functional
# Rattus norvegicus [6] = test: percentage decrease in heart rate after 6 hr at a dose of 10 mg/kg administered perorally in rats.; type: functional
# Rattus norvegicus [7] = test: percentage decrease in heart rate after 6 hr at a dose of 30 mg/kg administered perorally in rats.; type: functional
# Rattus norvegicus [8] = test: percentage decrease in heart rate after 1 hr at a dose of 10 mg/kg administered perorally in rats.; type: functional
# Rattus norvegicus [9] = test: percentage decrease in heart rate after 1 hr at a dose of 30 mg/kg administered perorally in rats.; type: functional
# Rattus norvegicus [10] = test: percentage decrease in heart rate after 24 hr at a dose of 10 mg/kg administered perorally in rats.; type: functional
# Rattus norvegicus [11] = test: Percentage decrease in systolic blood pressure after 6 hr at 30 mg/kg administered perorally in rats; type: functional, Artery
# Rattus norvegicus [12] = test: Percentage decrease in systolic blood pressure after 1 hr at 30 mg/kg administered perorally in rats; type: functional, Artery
# Rattus norvegicus [13] = test: Percentage decrease in systolic blood pressure after 1 hr at 10 mg/kg administered perorally in rats; type: functional, Artery
# Rattus norvegicus [14] = test: Percentage decrease in systolic blood pressure after 24 hr at 10 mg/kg administered perorally in rats; type: functional, Artery
# Rattus norvegicus [15] = test: Percentage decrease in systolic blood pressure after 4 hr at 10 mg/kg administered perorally in rats; type: functional, Artery
# Rattus norvegicus [16] = test: Percentage decrease in systolic blood pressure after 24 hr at 30 mg/kg administered perorally in rats; type: functional, Artery
# Rattus norvegicus [17] = test: Percentage decrease in systolic blood pressure after 4 hr at 30 mg/kg administered perorally in rats; type: functional, Artery
# Rattus norvegicus [18] = test: Percentage decrease in systolic blood pressure after 6 hr at 10 mg/kg administered perorally in rats; type: functional, Artery
# Rattus norvegicus [19] = test: Percentage decrease in systolic blood pressure (heart rate) after 4 hr at 100 mg/kg administered perorally in rats; type: functional, Artery
# Rattus norvegicus [20] = test: Percentage decrease in systolic blood pressure (heart rate) after 4 hr at 30 mg/kg administered perorally in rats; type: functional, Artery
# Rattus norvegicus [21] = test: percentage decrease in heart rate after 4 hr at a dose of 30 mg/kg administered perorally in rats; type: functional
# Rattus norvegicus [22] = test: percentage decrease in heart rate after 24 hr at a dose of 30 mg/kg administered perorally in rats; type: functional
# Rattus norvegicus [23] = test: percentage decrease in heart rate after 4 hr at a dose of 300 mg/kg administered perorally in rats; type: functional
# Rattus norvegicus [24] = test: percentage decrease in heart rate after 6 hr at a dose of 30 mg/kg administered perorally in rats; type: functional
# Rattus norvegicus [25] = test: percentage decrease in heart rate after 1 hr at a dose of 30 mg/kg administered perorally in rats; type: functional
# Rattus norvegicus [26] = test: Percentage decrease in systolic blood pressure after 4 hr at 300 mg/kg administered perorally in rats; type: functional, Artery
smiles,measurement,setting,value
CCCCCC(C)C(C)c1cc(O)c2c(c1)OC(C)(C)C1CCN(C(=O)CN)C=C21 (stereo unspecified),Heart rate,Rattus norvegicus [1],7%
same,Decrease in Systolic blood pressure,Rattus norvegicus [2],12%
CCCCCC(C)C(C)c1cc(O)c2c(c1)OC(C)(C)C1CCN(C(=O)CO)CC21 (stereo unspecified),Heart rate,Rattus norvegicus [1],2%
same,Decrease in Systolic blood pressure,Rattus norvegicus [2],0%
CCCCCC(C)C(C)c1cc(O)c2c(c1)OC(C)(C)C1=C2CN(C(=O)CN2CCOCC2)CC1 (stereo unspecified),Heart rate,Rattus norvegicus [3],0%
same,Heart rate,Rattus norvegicus [1],37%
same,Heart rate,Rattus norvegicus [4],7%
same,Heart rate,Rattus norvegicus [5],16%
same,Heart rate,Rattus norvegicus [6],11%
same,Heart rate,Rattus norvegicus [7],20%
same,Heart rate,Rattus norvegicus [8],-21%
same,Heart rate,Rattus norvegicus [9],-2%
same,Heart rate,Rattus norvegicus [10],8%
same,Decrease in Systolic blood pressure,Rattus norvegicus [11],27%
same,Decrease in Systolic blood pressure,Rattus norvegicus [12],10%
same,Decrease in Systolic blood pressure,Rattus norvegicus [13],4%
same,Decrease in Systolic blood pressure,Rattus norvegicus [14],2%
same,Decrease in Systolic blood pressure,Rattus norvegicus [15],8%
same,Decrease in Systolic blood pressure,Rattus norvegicus [16],10%
same,Decrease in Systolic blood pressure,Rattus norvegicus [17],18%
same,Decrease in Systolic blood pressure,Rattus norvegicus [18],3%
same,Decrease in Systolic blood pressure,Rattus norvegicus [2],40%
CC(CCCc1ccc(F)cc1)c1cc(O)c2c(c1)OC(C)(C)C1=C2CN(C(=O)CO)CC1 (stereo unspecified),Heart rate,Rattus norvegicus [1],19%
same,Decrease in Systolic blood pressure,Rattus norvegicus [19],8%
same,Decrease in Systolic blood pressure,Rattus norvegicus [20],10%
same,Heart rate,Rattus norvegicus [21],30%
CCCCCC(C)C(C)c1cc(O)c2c(c1)OC(C)(C)C1CCN(C(=O)CN3CCOCC3)C=C21 (stereo unspecified),Heart rate,Rattus norvegicus [22],14%
same,Heart rate,Rattus norvegicus [1],5%
same,Heart rate,Rattus norvegicus [23],9%
same,Heart rate,Rattus norvegicus [24],0%
same,Heart rate,Rattus norvegicus [25],-16%
same,Decrease in Systolic blood pressure,Rattus norvegicus [11],-1%
same,Decrease in Systolic blood pressure,Rattus norvegicus [12],-8%
same,Decrease in Systolic blood pressure,Rattus norvegicus [16],-6%
same,Decrease in Systolic blood pressure,Rattus norvegicus [17],-5%
same,Decrease in Systolic blood pressure,Rattus norvegicus [26],26%
same,Decrease in Systolic blood pressure,Rattus norvegicus [2],23%
same,Heart rate,Rattus norvegicus [21],6%
CCCCCC(C)C(C)c1cc(OC(=O)COC(C)=O)c2c(c1)OC(C)(C)C1=C2CN(C(=O)COC(C)=O)CC1 (stereo unspecified),Decrease in Systolic blood pressure,Rattus norvegicus [20],10%
CCCCCC(C)C(C)c1cc(O)c2c(c1)OC(C)(C)C1=C2CN(C(=O)CCO)CC1 (stereo unspecified),Heart rate,Rattus norvegicus [1],-1%
same,Decrease in Systolic blood pressure,Rattus norvegicus [2],6%
